Publication PMC4269221 (Cell reports, 2014)
Entries after “also recorded” stand apart in the source; their conditions may differ.

Key:
Saos-2 cells (p53-null) = test: CellTiter Glo cell viability assay, Saos-2; conditions: Saos-2 ReBiL cells, 6 hr, CellTiter Glo (Figure 5)
[1] = system: p53-Mdm2 complexes in cell lysates; test: BiLC assay using cell lysates, p53-Mdm2; format: biochemical; conditions: absence of FBS, RT 10 minutes, luminescence at 26 °C
[2] = system: p53-Mdm4 complexes in Saos-2 p53-Mdm4 ReBiL cells; test: Real-time BiLC; format: cell-based; conditions: 37 °C; for disruption of preformed p53-Mdm4 complexes in living cells: pre-induced cells, doxycycline withdrawal, 10% FBS media
[3] = system: Mdm2-Mdm4 N-terminal BiLC pair (U2OS Mdm4_111 - Mdm2_108 ReBiL cells); test: ReBiL assay of the Mdm2-Mdm4 N-terminal BiLC pair in living cells; format: cell-based; conditions: 500 ng/ml doxycycline, 24 hours, 37 °C
Saos-2 cells = test: Lactate dehydrogenase; format: cell-based; conditions: absence of serum, 25 μM and 10 μM, 6 hr
[4] = system: p53-Mdm4 complexes in cell lysates; test: BiLC assay using cell lysates, p53-Mdm4; format: biochemical; conditions: absence of FBS, RT 10 minutes, luminescence at 26 °C
[5] = target: p53-Mdm2 complexes in Saos-2 p53-Mdm2 ReBiL cells (Homo sapiens, UniProt Q00987); test: Real-time BiLC; format: cell-based; conditions: pre-induced cells, doxycycline withdrawal, 10% FBS media, 37 °C
Sequence of p53-Mdm2 complexes in Saos-2 p53-Mdm2 ReBiL cells (Q00987 whole entry, one chain of several): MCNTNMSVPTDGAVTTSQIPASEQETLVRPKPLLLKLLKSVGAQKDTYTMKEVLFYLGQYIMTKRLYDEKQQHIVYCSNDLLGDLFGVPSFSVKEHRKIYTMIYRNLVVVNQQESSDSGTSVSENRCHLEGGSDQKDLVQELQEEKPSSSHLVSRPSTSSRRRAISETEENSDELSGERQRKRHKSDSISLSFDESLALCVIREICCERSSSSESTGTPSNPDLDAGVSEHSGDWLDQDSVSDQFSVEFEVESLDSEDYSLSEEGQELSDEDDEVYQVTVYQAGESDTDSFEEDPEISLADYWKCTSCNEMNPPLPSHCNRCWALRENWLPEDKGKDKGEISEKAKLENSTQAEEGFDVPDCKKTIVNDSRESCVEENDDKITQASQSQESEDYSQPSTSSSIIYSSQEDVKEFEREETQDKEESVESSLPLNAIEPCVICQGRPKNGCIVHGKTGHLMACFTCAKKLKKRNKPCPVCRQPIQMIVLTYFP

COc1ccc(C2=N[C@@H](c3ccc(Cl)cc3)[C@@H](c3ccc(Cl)cc3)N2C(=O)N2CCNC(=O)C2)c(OC(C)C)c1 [Nutlin-3a]
p53-independent cytotoxicity at high concentrations (Saos-2 cells (p53-null)): induce p53-independent cytotoxicity
p53-Mdm2 disruption in lysate BiLC assay [1]: efficiently disrupted
disruption of preformed p53-Mdm4 complexes in living cells [2]: not affected; also recorded: has no effect
Mdm2-Mdm4 N-terminal domain BiLC signal (association) [3]: did not promote
LDH leakage / cell membrane damage (Saos-2 cells): did not induce membrane leakage

CCOc1cc(/C=C2/C(=O)N(c3ccccc3)N=C2C)cc(Cl)c1OCC(=O)OC [SJ-172550]
p53-Mdm4 disruption in lysate BiLC assay [4]: no activity
p53-Mdm2 disruption in lysate BiLC assay [1]: no activity
p53-Mdm4 BiLC signal (newly synthesized complexes) ([2]; doxycycline 500 ng/ml and compound added at Time = 0, 24-48 hr): No decrease; also recorded: lacks p53-Mdm4 disruption activity

RO-5963
disruption of preformed p53-Mdm2 complexes in living cells [5]: limited ability to disrupt; also recorded: moderately reduces
p53-Mdm4 disruption in lysate BiLC assay [4]: no activity
p53-Mdm2 disruption in lysate BiLC assay [1]: no activity
disruption of preformed p53-Mdm4 complexes in living cells [2]: no effect
Mdm2-Mdm4 N-terminal domain BiLC signal (association) [3]: increased the BiLC signal; also recorded: enhances
